Assay results published in patent US9499495B2, “Quinazolines and azaquinazolines as dual inhibitors of RAS/RAF/MEK/ERK and PI3K/AKT/PTEN/mTOR pathways” (Asana Biosciences, LLC, priority 2013, dated 2016).
pIC50: −log10 of the molar value.

Columns and labels:
B-RAFV600E = target: T1, B-RAFV600E (Homo sapiens, UniProt P15056, V600E); assay: B-RAFV600E radiometric assay; type: biochemical; conditions: read-out: Kinase assay B-Raf
T1 construct: purchased Millipore, USA 14-557
Method: Compound inhibition for B-RAFV600E was determined through radiometric assay using a BRAF enzyme (Catalog No. 14-557, Millipore, USA) and MEK-K97M protein as a substrate (Catalog No. 0785-0000-1, ProqQinase GmbH, Germany). The B-RAF kinase catalyzes the phosphorylation of MEK protein in the presence of gamma ATP (PLC-101, Jonaki, CCMB, Hyderabad), cold ATP and Mg^2+.
The phosphorylated protein product is detected by the scintillation counter Topcount® machine (Perkin Elmer). This assay has been adapted from the method previously reported by Yeh et al. (2007, Clinical Cancer Research; 13, 1576-1583). The assay measures the B-RAF mediated transfer of 32P from the gamma position of radiolabeled ATP onto MEK1-KD. The labeled phosphorylated protein was measured in MicroBeta® Trilux Counter (Perkin Elmer). The assay was validated with reference compounds RAF1 Kinase Inhibitor I and ZM 336372 inhibitor which are reported to be inhibitors of B-RAF enzyme (Lackey, 2000, Medicinal Chemistry Letters; 10(3):223-226; Kupcho, “Fluorescent High throughput kinase cascade assays for inhibitor characterization, RAF-MEK-ERK pathway, www.invitrogen.com, and Hall-Jackson, 1999, Chemical Biology; 6(8):559-568). B-RAF enzyme mixture (13 μL) was added to compound wells containing 2 μL of the NCE in 1% DMSO and incubated for 45 min at rt on a shaking incubator at 300 rpm. MEK-K97M (0.5 μg) and cold ATP to a final concentration of 5 μM, and hot ATP 0.1 μCi in a volume of 10 μL was added to each well and incubated for 2 h at rt on a shaking incubator at 300 rpm. The reaction was stopped by addition of […] (13 μL) containing ATP (1 mM: 495 μL 1N HCl and 5 μL 100 mM ATP). Aliquot (30 μL) was then transferred to the center of a 2 cm×2 cm P81 paper. P81 paper was washed 8×5 min each with ortho-phosphoric acid (0.5%). P81 papers are washed twice with acetone for […] Assay squares were allowed to dry for […] at 37° C. P81 paper are transferred to Optiplate™ (Perkin Elmer) and counted in a Topcount® counter (Perkin Elmer). Data was plotted against the compound concentration to generate dose-response curves and IC50 values were determined using a sigmoidal dose response curve fit GraphPad Prism® v5 software.

mTOR kinase = target: T2, mTOR kinase (Homo sapiens, UniProt P42345); assay: mTOR kinase TR-FRET assay; type: biochemical
T2 construct: purchased Millipore, US
T2 sequence (P42345 1362-2549 limits assumed): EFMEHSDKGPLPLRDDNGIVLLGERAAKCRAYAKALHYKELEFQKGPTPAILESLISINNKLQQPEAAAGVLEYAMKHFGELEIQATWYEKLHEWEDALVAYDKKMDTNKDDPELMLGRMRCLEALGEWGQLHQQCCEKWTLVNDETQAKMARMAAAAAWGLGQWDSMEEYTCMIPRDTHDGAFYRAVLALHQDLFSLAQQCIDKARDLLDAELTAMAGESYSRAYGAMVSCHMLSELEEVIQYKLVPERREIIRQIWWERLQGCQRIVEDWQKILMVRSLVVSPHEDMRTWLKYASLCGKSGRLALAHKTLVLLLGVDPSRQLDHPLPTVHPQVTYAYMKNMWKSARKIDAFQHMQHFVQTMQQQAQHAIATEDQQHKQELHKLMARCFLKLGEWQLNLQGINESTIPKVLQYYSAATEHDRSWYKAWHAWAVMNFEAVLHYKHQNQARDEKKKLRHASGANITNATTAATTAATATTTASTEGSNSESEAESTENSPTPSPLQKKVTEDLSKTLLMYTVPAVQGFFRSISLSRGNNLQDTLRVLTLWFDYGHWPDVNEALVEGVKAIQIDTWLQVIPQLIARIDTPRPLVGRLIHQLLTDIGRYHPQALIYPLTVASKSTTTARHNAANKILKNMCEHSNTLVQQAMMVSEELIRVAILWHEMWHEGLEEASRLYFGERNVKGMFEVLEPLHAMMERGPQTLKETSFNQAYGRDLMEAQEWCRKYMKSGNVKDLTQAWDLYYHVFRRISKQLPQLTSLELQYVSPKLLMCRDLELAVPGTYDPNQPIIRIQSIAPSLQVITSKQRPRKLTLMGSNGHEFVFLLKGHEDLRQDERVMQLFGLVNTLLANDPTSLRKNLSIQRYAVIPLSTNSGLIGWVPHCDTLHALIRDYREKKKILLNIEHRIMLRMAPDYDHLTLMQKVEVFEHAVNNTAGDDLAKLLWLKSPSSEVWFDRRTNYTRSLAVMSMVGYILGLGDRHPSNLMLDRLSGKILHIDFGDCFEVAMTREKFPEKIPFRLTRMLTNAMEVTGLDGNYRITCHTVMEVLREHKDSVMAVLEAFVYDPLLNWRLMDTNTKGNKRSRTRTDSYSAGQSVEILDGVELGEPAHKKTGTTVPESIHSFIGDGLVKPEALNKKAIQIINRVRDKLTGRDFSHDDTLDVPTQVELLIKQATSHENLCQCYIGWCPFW
Method: Compound inhibition for mTOR kinase was determined by homogeneous TR-FRET assay using ULight-p70 S6K (Thr 389) peptide as substrate. mTOR enzyme (Millipore, US; […]) was used in the assay. The reaction buffer was HEPES (50 mM, pH 7.5), EGTA (1 mM), and MnCl2 (3 mM). Test compound was pre-incubated with mTOR for 30 min followed by 50 nM ULight-p70 S6K (Thr 389) peptide along with ATP (20 μM).
After incubating the reaction mixture for 30 min, Eu-labeled anti-phospho-substrate antibody (1 nM, Perkin Elmer, USA) was added. Fluorescence emission at […] was measured upon excitation at 340 nm. The compound dilution was carried out in 100% DMSO followed by a buffer dilution. The kinase reaction was incubated for 1 h at rt followed by the addition of substrate-ATP mix and incubated at rt for 1 h. The reaction was terminated by the addition of EDTA followed by the addition of detection mix. IC50 values were determined using a sigmoidal dose response curve fit, GraphPad Prism® v5 software.

T1 sequence (P15056 416-766 V600E limits assumed): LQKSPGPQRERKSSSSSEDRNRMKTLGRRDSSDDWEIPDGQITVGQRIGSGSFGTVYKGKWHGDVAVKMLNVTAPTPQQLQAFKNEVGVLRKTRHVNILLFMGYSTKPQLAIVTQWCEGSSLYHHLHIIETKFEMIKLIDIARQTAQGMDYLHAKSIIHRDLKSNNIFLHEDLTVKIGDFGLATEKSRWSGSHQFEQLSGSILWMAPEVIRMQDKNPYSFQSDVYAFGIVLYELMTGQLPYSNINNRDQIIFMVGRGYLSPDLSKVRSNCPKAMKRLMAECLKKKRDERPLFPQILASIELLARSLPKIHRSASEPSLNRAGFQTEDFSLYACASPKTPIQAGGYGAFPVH

Compound	pIC50 (B-RAFV600E)	pIC50 (mTOR kinase)
CCCS(=O)(=O)Nc1cccc(-c2cc(OCCO)c3nc(-c4ccc(N)nc4)nc(N4CCOCC4)c3c2)c1F [Example 4, N-(3-(2-(6-aminopyridin-3-yl)-8-(2-hydroxyethoxy)-4-morpholinoquinazolin-6-yl)-2-fluorophenyl)propane-1-sulfonamide]	6.00 to 7.00	6.00 to 7.00
CCCS(=O)(=O)Nc1cccc(-c2cc(OC)c3nc(-n4c(CO)nc5ccccc54)nc(N4CCOCC4)c3c2)c1F [Example 10, N-(2-fluoro-3-(2-(2-(hydroxymethyl)-1H-benzo[d]imidazol-1-yl)-8-methoxy-4-morpholinoquinazolin-6-yl)phenyl)propane-1-sulfonamide]	6.00 to 7.00	6.00 to 7.00
CCCCS(=O)(=O)Nc1cccc(-c2cc(OC)c3nc(-c4cnc(N)nc4)nc(N4CCOCC4)c3c2)c1F [Example 23, N-(3-(2-(2-aminopyrimidin-5-yl)-8-methoxy-4-morpholinoquinazolin-6-yl)-2-fluorophenyl)butane-1-sulfonamide]	6.00 to 7.00	6.00 to 7.00
COc1cc(-c2cccc(NS(=O)(=O)c3ccc(F)cc3F)c2F)cc2c(N3CCOCC3)nc(-c3cnc(N)nc3)nc12 [Example 24, N-(3-(2-(2-aminopyrimidin-5-yl)-8-methoxy-4-morpholinoquinazolin-6-yl)-2-fluorophenyl)-2,4-difluorobenzenesulfonamide]	6.00 to 7.00	6.00 to 7.00
COc1cc(-c2cccc(NS(=O)(=O)CCC(F)(F)F)c2F)cc2c(N3CCOCC3)nc(-c3ccc(N)nc3)nc12 [Example 31, N-(3-(2-(6-aminopyridin-3-yl)-8-methoxy-4-morpholinoquinazolin-6-yl)-2-fluorophenyl)-3,3,3-trifluoropropane-1-sulfonamide]	6.00 to 7.00	6.00 to 7.00
CCCS(=O)(=O)Nc1cccc(-c2cc(OC)c3nc(-c4ccc(NC(=O)Nc5ccncc5)cc4)nc(N4CCOCC4)c3c2)c1F [Example 34, N-(2-fluoro-3-(8-methoxy-4-morpholino-2-(4-(3-(pyridin-4-yl)ureido)phenyl)quinazolin-6-yl)phenyl) propane-1-sulfonamide]	6.00 to 7.00	7.00 to 9.00
COc1cc(-c2cccc(NS(=O)(=O)CCCF)c2F)cc2c(N3CCOC[C@H]3C)nc(-c3cnc4[nH]ccc4c3)nc12 [Example 44, (R)-3-fluoro-N-(2-fluoro-3-(8-methoxy-4-(3-methylmorpholino)-2-(1H-pyrrolo[2,3-b]pyridin-5-yl)quinazolin-6-yl)phenyl)propane-1-sulfonamide]	6.00 to 7.00	6.00 to 7.00
Nc1ccc(-c2nc(N3CCOCC3)c3cc(-c4cccc(NS(=O)(=O)CCCF)c4F)cc(OCC(=O)O)c3n2)cn1 [Example 59, 2-((2-(6-aminopyridin-3-yl)-6-(2-fluoro-3-(3-fluoropropylsulfonamido)phenyl)-4-morpholino-quinazolin-8-yl)oxy)acetic acid 2,2,2-trifluoroacetate]	6.00 to 7.00	7.00 to 9.00
COc1cc(-c2cccc(NS(=O)(=O)CCCF)c2F)cc2c(N3CCOCC3)nc(-c3ccc(NS(C)(=O)=O)cc3)nc12 [Example 126, 3-f1uoro-N-(2-fluoro-3-(8-methoxy-2-(4-(methylsulfonamido)phenyl)-4-morpholinoquinazolin-6-yl)phenyl)propane-1-sulfonamide]	6.00 to 7.00	6.00 to 7.00

The next lines start with the values.

pIC50 (B-RAFV600E)	pIC50 (mTOR kinase)	Compound
7.00 to 9.00	6.00 to 7.00	COc1cc(-c2cccc(NS(=O)(=O)CCCF)c2F)cc2c(N3CCOCC3)nc(-c3cnc(N)nc3C)nc12 [Example 35, N-(3-(2-(2-amino-4-methylpyrimidin-5-yl)-8-methoxy-4-morpholinoquinazolin-6-yl)-2-fluorophenyl)-3-fluoropropane-1-sulfonamide]
7.00 to 9.00	6.00 to 7.00	CCCNc1ccc(-c2nc(N3CCOCC3)c3cc(-c4cccc(NS(=O)(=O)CCCF)c4F)cc(OC)c3n2)cn1 [Example 49, 3-fluoro-N-(2-fluoro-3-(8-methoxy-4-morpholino-2-(6-(propylamino)pyridin-3-yl)quinazolin-6-yl)phenyl)propane-1-sulfonamide]
7.00 to 9.00	6.00 to 7.00	CCOc1cc(-c2cccc(NS(=O)(=O)CCCF)c2F)cc2c(N3CCOC[C@H]3C)nc(-c3cnc4[nH]ccc4c3)nc12 [Example 61, (R)-N-(3-(8-ethoxy-4-(3-methylmorphollno)-2-(1H-pyrrolo[2,3-b]pyridin-5-yl)quinazolin-6-yl)-2-fluorophenyl)-3-fluoropropane-1-sulfonamide]
7.00 to 9.00	6.00 to 7.00	CCOc1cc(-c2cccc(NS(=O)(=O)CCCF)c2F)cc2c(N3CCOC[C@@H]3C)nc(-c3cnc(N)nc3)nc12 [Example 66]
7.00 to 9.00	7.00 to 9.00	C[C@@H]1COCCN1c1nc(-c2ccc(N)nc2)nc2c(N3CCOCC3)cc(-c3cccc(NS(=O)(=O)CCCF)c3F)cc12 [Example 72, (R)-N-(3-(2-(6-aminopyridin-3-yl)-4-(3-methylmorpholino)-8-morpholinoquinazolin-6-yl)-2-fluorophenyl)-3-fluoropropane-1-sulfonamide]
7.00 to 9.00	6.00 to 7.00	C[C@@H]1COCCN1c1nc(-c2ccc(N)nc2)nc2c(N3CCCC3)cc(-c3cccc(NS(=O)(=O)CCCF)c3F)cc12 [Example 74, (R)-N-(3-(2-(6-aminopyridin-3-yl)-4-(3-methylmorpholino)-8-(pyrrolidin-1-yl)quinazolin-6-yl)-2-fluorophenyl)-3-fluoropropane-1-sulfonamide]
7.00 to 9.00	6.00 to 7.00	COc1cc(-c2c(F)ccc(NS(=O)(=O)CCCF)c2F)cc2c(N3CCOCC3)nc(-c3cnc4[nH]ccc4c3)nc12 [Example 83]
7.00 to 9.00	6.00 to 7.00	COc1cc(-c2c(Cl)ccc(NS(=O)(=O)CCCF)c2F)cc2c(N3CCOCC3)nc(-c3ccc(N)nc3)nc12 [Example 85, N-(3-(2-(6-aminopyridin-3-yl)-8-methoxy-4-morpholinoquinazolin-6-yl)-4-chloro-2-fluorophenyl)-3-fluoropropane-1-sulfonamide]
7.00 to 9.00	6.00 to 7.00	CCc1cc(-c2cccc(NS(=O)(=O)CCCF)c2F)cc2c(N3CCOC[C@H]3C)nc(-c3cnc(N)nc3)nc12 [Example 119, (R)-N-(3-(2-(2-aminopyrimidin-5-yl)-8-ethyl-4-(3-methylmorpholino)quinazolin-6-yl)-2-fluorophenyl)-3-fluoropropane-1-sulfonamide]
7.00 to 9.00	6.00 to 7.00	COc1cc(-c2cccc(NS(=O)(=O)CCCF)c2F)cc2c(N3CCOCC3)nc(-c3ccc(NC(C)=O)nc3)nc12 [Example 124, N-(5-(6-(2-fluoro-3-(3-fluoropropylsulfonamido)phenyl)-8-methoxy-4-morpholinoquinazolin-2-yl)pyridin-2-yl)acetamide]
7.00 to 9.00	6.00 to 7.00	COCCNc1ccc(-c2nc(N3CCOCC3)c3nc(-c4cccc(NS(=O)(=O)CCCF)c4F)ccc3n2)cn1 [Example 133, 3-fluoro-N-(2-fluoro-3-(2-(6-((2-methoxyethyl)amino)pyridin-3-yl)-4-morpholinopyrido[3,2-d]pyrimidin-6-yl)phenyl)propane-1-sulfonamide]
7.00 to 9.00	6.00 to 7.00	CCOc1cc(-c2cccc(NS(=O)(=O)CCCF)c2F)cc2c(N3CCOC[C@H]3C)nc(-c3cnc(NC)nc3)nc12 [Example 138, (R)-N-(3-(8-ethoxy-2-(2-(methylamino)pyrimidin-5-yl)-4-(3-methylmorpholino)quinazolin-6-yl)-2-fluorophenyl)-3-fluoropropane-1-sulfonamide]
